Measured values as given in EPA's ToxValDB 9.5 (doi:10.2903/j.efsa.2006.61r).
Values after ≈ are worked out from the molar mass of the structure shown.

What was measured:
[1] = test system: Anas platyrhynchos; settings: acute; oral; unspecified; mortality
[2] = test system: Apis mellifera; settings: acute, mortality
[3] = test system: Bibionidae; settings: chronic/long-term; duration: 28 days; seedling emergence
[4] = test system: Colinus virginianus; settings: for LD50: acute, oral, mortality
[5] = test system: Daphnia magna; settings: chronic/long-term; duration: 21 days; reproduction
[6] = test system: Encarsia formosa
[7] = test system: Oncorhynchus mykiss; settings: acute; duration: 96 hours; mortality
[8] = test system: Pontoscolex corethrurus; settings: chronic/long-term
[9] = test system: Rattus norvegicus; settings: for LD50: acute, oral, mortality
[10] = test system: Tagia sp.; settings: acute; duration: 14 days; mortality
[11] = test system: Trichogramma cacoeciae; settings: not reported

Question: With Cc1cc(C)nc(Nc2ccccc2)n1 [Pyrimethanil] as the molecule, how does the LD50 [1] read?
Answer: > 2000 mg/kg

Question: And the LD50 ([2]; dermal)?
Answer: > 100 µg/piece

Question: What about the LD50 ([2]; duration: 48 hours, oral, unspecified) of the same molecule?
Answer: > 100 µg/piece

Question: And the NOEC [3]?
Answer: 4 mg/L

Question: And the LD50 ([4]; diet)?
Answer: > 874 mg/kg

Question: And the LD50 [4]?
Answer: > 2000 mg/kg

Question: What about the NOAEL ([4]; reproduction developmental) of the same molecule?
Answer: 96 mg/kg-day

Question: What about the NOEC [5] of the same molecule?
Answer: 0.94 mg/L

Question: And the LEL ([6]; acute, duration: 6 days, mortality)?
Answer: 1000 g/ha

Question: And the LEL ([6]; not reported, reproduction)?
Answer: 1000 g/ha

Question: What about the LC50 [7] of the same molecule?
Answer: 10.6 µg/mL (≈ 53 µM)

Question: What about the NOEC [8] of the same molecule?
Answer: 4.12 mg/kg

Question: And the LD50 ([9]; F)?
Answer: 5970 mg/kg

Question: What about the LD50 ([9]; M) of the same molecule?
Answer: 4150 mg/kg

Question: What about the NOAEL ([9]; chronic, duration: 2 years, clinical chemistry) of the same molecule?
Answer: 17 mg/kg-day

Question: And the NOAEL ([9]; reproduction developmental, M, body weight)?
Answer: 18.4 mg/kg-day

Question: And the NOAEL ([9]; subchronic, duration: 90 days, organ weight)?
Answer: 5.4 mg/kg-day

Question: What about the LC50 [10] of the same molecule?
Answer: 626 mg/kg

Question: What about the LEL ([11]; mortality) of the same molecule?
Answer: 1000 g/ha

Question: And the LEL ([11]; reproduction)?
Answer: 1000 g/ha
